Assay [1] concerns the target T1, AKR1C2 (Homo sapiens, UniProt P52895).
T1 construct: made in house
T1 sequence (P52895 1-323): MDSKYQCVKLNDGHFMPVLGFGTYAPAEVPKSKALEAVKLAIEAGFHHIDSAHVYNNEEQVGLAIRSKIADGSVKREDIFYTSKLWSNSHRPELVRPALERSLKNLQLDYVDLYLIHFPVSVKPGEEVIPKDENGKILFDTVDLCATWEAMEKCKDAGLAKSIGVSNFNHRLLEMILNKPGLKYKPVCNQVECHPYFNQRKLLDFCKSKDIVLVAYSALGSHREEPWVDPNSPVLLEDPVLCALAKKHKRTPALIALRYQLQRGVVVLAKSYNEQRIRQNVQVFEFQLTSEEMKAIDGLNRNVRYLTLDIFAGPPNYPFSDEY
On the set-up: method as in Bauman et al., 2005. The conditions noted are these: ref Bauman et al., 2005; cited from earlier work.

For the next assay, the system named is HIO80 cells. In words: Cell proliferation assay (alamarBlue), control cell line HIO80. It is filed as cell-based, human. The conditions noted are these: 48 h incubation. On the procedure: (§1) The cell line COV362 (CVCL_2,420) was originally established from a high-grade ovarian serous adenocarcinoma from a metastatic site in the pleural effusion ([van den Berg-Bakker et al., 1993]) and was purchased from ECACC (ECACC 07071910) as p37 on 13 October 2017. The growth medium for COV362 cells was DMEM (D5546; Sigma–Aldrich GmbH), with 10% FBS (F9665; Sigma–Aldrich GmbH) and 2 mM L-glutamine (G7513; Sigma–Aldrich GmbH). COV362 cells in passages p37 + 12 to p37 + 17 were used in this study and seeded at a concentration of 3.5 cells/ml × 10^4 cells/ml for proliferation studies and at a concentration of 5.3 × 10^5/ml for migration studies. The cell line OVCAR-4 (CVCL_1,627) is a high-grade serous ovarian adenocarcinoma cell line established from a patient refractory to cisplatin ([Johnson et al., 1997]). The cell line was purchased from Merck on 19 March 2021. The growth medium for OVCAR-4 cells was RPMI-1640 (Sigma R5586) supplemented with 2 mM glutamine (G7513; Sigma–Aldrich GmbH), 10% FBS (F9665; Sigma–Aldrich GmbH), 0.25 μg/ml insulin (I9278; Sigma–Aldrich GmbH). OVCAR-4 cells in passages p+6 to p+15 were used in this study and seeded at a concentration of 6 cells/ml × 10^4 cells/ml. The control cell line HIO80 (CVCL_E274) was obtained from Andrew K. Godwin (University of Kansas Medical Center, Kansas, United States) on 20 October 2017 as p+72. It was originally established from ovarian surface epithelium ([Yang et al., 2004]). HIO80 cells were grown in RPMI medium (R5886, Sigma–Aldrich GmbH) supplemented with 10% FBS (F9665; Sigma–Aldrich GmbH), 2 mm L-glutamine (G7513; Sigma–Aldrich GmbH) and 6.6 µg/ml insulin (I9278; Sigma–Aldrich GmbH). HIO80 cells in passages p72 + 8 to p72 + 19 were used in this study and seeded at a concentration of 2 × 10^4 cells/mL. HIO80 in passage +10 was authenticated by short tandem repeats (STR) profiling performed by ATCC on 22 February 2019. Cells were grown in a humidified atmosphere containing 5% CO2 at 37°C. All cell lines were negative for mycoplasma infection which was periodically tested using MycoAlert^TM mycoplasma detection kit (Lonza, Basel, Switzerland).
(§2) The effect of ruthenium compounds on the proliferation of ovarian cancer cell lines COV362 and OVCAR-4 and the control cell line HIO80 was analyzed using the cell proliferation reagent alamarBlue HS (A50101; Thermo Fisher Scientific) following the manufacturer’s instructions.
(§3) Cells were seeded in 96-well plates in 100 µL of medium and allowed to adhere and grow for 24 h. […] Cisplatin and carboplatin purchased from Sigma–Aldrich GmbH (cat. number: PHR1624, lot: LRAB7778) and (cat. number: C2538, lot: MKCK1243) were dissolved in sterile water. Working solutions were prepared by a serial dilution of stock solutions with a culture medium. After the initial incubation, cells were treated with ruthenium complexes, cisplatin, and carboplatin. A range of final concentrations between 0.001 and 300 µM were used for ruthenium complexes and cisplatin, and between 0.001 µM and 1 mM for carboplatin. After 48 h of incubation, plates were incubated with 20 µL of alamarBlue. After 4 h absorbance was measured with a BioTek microplate spectrophotometer at 570 nm, with the reference wavelength set at 600 nm. First, the background value of a well containing the active substance without cells was subtracted, then the average values for duplicates/triplicates were calculated. The absorbance of the well containing only untreated cells was used as a normalization control. The half-maximal […] concentration (IC50) was determined for all ruthenium complexes with a growth-inhibiting effect on cells by constructing a dose-response curve (Graph Pad Prism, Version 8.0).
A general note: The colour change of resazurin is a common sign of viable cells or microbes.

The test system of assay [2] is COV362 cells. In words: Cell proliferation assay (alamarBlue), chemoresistant ovarian cancer cell line COV362. The assay is classed as cell-based, human. The conditions noted are these: for pIC50: 48 h incubation. On the procedure:
as §1, §2, §3

Assay [3] concerns COV362 cells. In words: Cell migration assay (Ibidi culture inserts), COV362. The assay is classed as cell-based, human. Particulars: 100 μM, 24 and 48 h. On the procedure: Cell migration assay was performed using Ibidi® three-well culture inserts. The inserts were placed in six-well plates. In total, 70 µL of cell suspension was seeded in the inserts and allowed to adhere and grow for 24 h. When the cells formed a confluent monolayer, the inserts were carefully removed and the cells were washed two times with DPBS. Cells were treated with 100 μM (final concentration) of compounds 8, 9, cisplatin, and carboplatin in 2 ml of growth medium. Cells treated with a medium containing the same volume of sterile water or DMSO were used as the controls. Images of cell gaps were taken with Axio Scope A1 Polarized Light Microscope (Zeiss) at the time of treatment, 24 and 48 h after, and analyzed using ImageJ software.

In another assay the test system is OVCAR-4 cells. The assay is described as follows: Cell proliferation assay (alamarBlue), OVCAR-4. The assay is classed as cell-based, human. Particulars: OVCAR-4; 48 h incubation. On the procedure: as §1, §2, §3
The target of assay [4] is T2, AKR1C3 (Homo sapiens, UniProt P42330).
T2 construct: made in house
T2 sequence (P42330 1-323): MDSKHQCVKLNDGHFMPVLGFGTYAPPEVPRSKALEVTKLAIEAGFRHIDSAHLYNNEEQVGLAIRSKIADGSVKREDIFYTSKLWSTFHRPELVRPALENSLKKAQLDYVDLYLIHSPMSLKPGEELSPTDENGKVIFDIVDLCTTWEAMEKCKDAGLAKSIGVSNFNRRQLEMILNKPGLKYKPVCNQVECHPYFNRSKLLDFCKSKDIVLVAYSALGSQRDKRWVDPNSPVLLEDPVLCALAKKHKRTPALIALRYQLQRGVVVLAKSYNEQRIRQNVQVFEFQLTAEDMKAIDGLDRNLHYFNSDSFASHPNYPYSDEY
The assay is described as follows: Inhibition of recombinant AKR1C3, oxidation of 1-acenaphthenol, progress-curve analysis. The assay is classed as biochemical. Particulars: AKR1C3. The procedure:
(§4) To investigate the effect of ten selected ruthenium compounds, we measured their effect on the time course of oxidation of the artificial substrate 1-acenaphtenol by recombinant enzymes AKR1C1–3. The recombinant enzymes AKR1C1–AKR1C3 were prepared as described previously ([Brozic et al., 2006]). Since the artificial substrate is racemic, the oxidation follows a double exponential pattern as described previously ([Traven et al., 2015]). The in vitro catalytic activity of AKR1C1–3 enzymes was determined spectrophotometrically by monitoring the increase in NADH absorbance at 340 nm (ε(λ340) = 6220 M^−1cm^−1) in the presence of the substrate 1-acenaphthenol. Enzymatic reactions (300 µL) were performed in 100 mm potassium phosphate buffer (pH 9.0), 0.005% (v/v) TritonX-114, 5% (v/v) DMSO, containing 2.3 mm NAD^+ and 1-acenaphthenol at final concentrations of 90, 180, and 250 µM for AKR1C1, AKR1C2, and AKR1C3, respectively. A total of 5 µL of a tested compound in DMSO was added to the reaction mixture. The final concentrations of the tested compounds ranged from 1 to 200 μM, depending on the extent of inhibition (Supplementary Data). The reaction was started by adding 15 µL of AKR1C1, AKR1C2, or AKR1C3 dissolved in 1x PBS (pH 7.3) at final concentrations of 0.11, 0.16, and 1.5 µM, respectively. AKR1C1–3 activity was measured at 37°C for 3 h without shaking using a PowerWave XS microplate reader (Biotek; Winooski, VT, United States). Measurements at seven different concentrations were performed in duplicates or triplicates (Supplementary Figures S2). To mechanistically explain all the obtained progress curves for each ruthenium complex on each enzyme by a common reaction scheme, we extended the originally proposed scheme so that the interaction of the ruthenium complex with apo- and holoenzyme was allowed to be rapid and followed by a slow irreversible association of a second ruthenium complex molecule. However, the affinity of the Ru complexes for the apoenzymes was much lower so this part was excluded from the proposed kinetic model for clarity (Figure 4).
(§5) FIGURE 4 Reaction scheme for the oxidation of 1-acenaphtenol by AKR1C1-3 and its inhibition by ruthenium compounds. E represents apoenzyme, E-NAD and E-NADH represent holoenzyme with bound NAD^+ and NADH, respectively. A and B are enantiomers of substrate 1-acenaphtenol. Symbols which include I (ruthenium compound) represent holoenzyme in complex with one or two inhibitor molecules. KNAD, KNADH, and K2-3 are equilibrium constants and k+2–3 are second-order association rate constants for the binding of the second inhibitor molecule to the enzyme. The progress curves for each enzyme in the presence of ruthenium complexes were analyzed by the WEB server ENZO (https://enzo.cmm.ki.si/) designed exactly for such purposes ([Bevc et al., 2011]).

For assay [5], the target named is T1, AKR1C2. The assay is described as follows: Inhibition of recombinant AKR1C2, oxidation of 1-acenaphthenol, progress-curve analysis. The assay is classed as biochemical. The conditions noted are these: AKR1C2. On the procedure:
as §4, §5

The target in a further assay is T3, AKR1C1 (Homo sapiens, UniProt Q04828).
T3 construct: made in house
T3 sequence (Q04828 1-323): T1 sequence (P52895 1-323) with V38T, H47R, V54L, S87C, M151V, H170R, L172Q
The assay is described as follows: Inhibition of recombinant AKR1C1, oxidation of 1-acenaphthenol, progress-curve analysis. It is filed as biochemical. The procedure:
as §4, §5

The target of assay [6] is T2, AKR1C3. Further details: method as in Traven et al., 2015. Particulars: ref Traven et al., 2015; cited from earlier work.
Assay [7] addresses T2, AKR1C3. Further details: method as in Qiu et al., 2007. The conditions noted are these: ref Qiu et al., 2007; cited from earlier work.
The test system of the next assay is MCF-7. The conditions noted are these: ref Kljun et al., 2016; cited from earlier work.
The mark [8] stands for this setting: irreversible binding of second inhibitor molecule to E-NAD-I.
[9] abbreviates: reversible binding to holoenzyme E-NAD, read-out: K2.

These results are taken from paper PMC9403717, “Ruthenium complexes show potent inhibition of AKR1C1, AKR1C2, and AKR1C3 enzymes and anti-proliferative action against chemoresistant ovarian cancer cell line” (Frontiers in Pharmacology, 2022).

Substitutions are numbered along the chain they refer to. pIC50, pKi: −log10 of the molar value. Like-named read-outs stand apart in the source and are kept apart here.

Regarding `C[C@H](CCC(=O)O)[C@H]1CC[C@H]2[C@@H]3CC[C@@H]4CC(=O)CC[C@]4(C)[C@H]3CC[C@]12C` [5β-cholanic acid-3-one], the pKi at AKR1C2 [1] was 7.68.

Consider `N.N.O=C([O-])C1(C(=O)[O-])CCC1.[Pt+2]` [Carboplatin, reference compound], for which the pIC50 (as a rule, −log10 of the IC50, conventionally taken in molar units) in the assay on HIO80 cells was 3.88; in the assay with COV362 cells [2], 3.57; with OVCAR-4 cells, 4.14. In addition, the “effect on cell migration (in words)” value in the assay on COV362 cells [3] is “Significant cell migration was observed”.

As to `N.N.[Cl][Pt][Cl]` [Cisplatin, reference compound], the negative-log IC50 (pIC50) in the assay with HIO80 cells was 5.16; in the assay with COV362 cells [2] it was 4.87; in the assay with OVCAR-4 cells, 5.38.

Consider `Oc1c(I)cc(Cl)c2cccnc12` [Clioquinol, reference compound], for which the “fold lower IC50 value compared to Ru-pta complex 8” value with COV362 cells [2] was determined as 1.9 fold. The pIC50 with COV362 cells [2] (Homo sapiens) is 4.70.

Turning to `CN(C)c1ccc(C(=O)C=C([O][Ru+][PH]23CN4CN(CN(C4)C2)C3)C(F)(F)F)cc1.Cc1ccc(C(C)C)cc1.F[P-](F)(F)(F)(F)F` [Compound 4, (η^6-p-cymene)(4,4,4-trifluoro-1-(4-(dimethylamino)phenyl)-1,3-butandionato)(pta)ruthenium(II) hexafluorophosphate], the “k+2” value was found to be 1.8 M⁻¹ s⁻¹ at AKR1C3 [4] (setting [8]), 1.9 M⁻¹ s⁻¹ at AKR1C2 [5] (setting [8]) and 1.4 M⁻¹ s⁻¹ at AKR1C1 (setting [8]). Moreover, the pKi is 3.36 on AKR1C3 [4] (setting [9]), 3.47 at AKR1C2 [5] (setting [9]) and 4.06 on AKR1C1 (setting [9]).

As to `Cc1ccc(C(C)C)cc1.Cc1ccc(C(C)C)cc1.[Cl][Ru][Cl].[Cl][Ru][Cl]` [Compound P1, [(η^6-p-cymene)RuCl(μ-Cl)]2], at AKR1C3 [6], the “Ki values (in words)” value was “nM Ki values”.

As to `CC1(C)CC[C@@]2(CC[C@H]3[C@@H]4CCc5cc(C(N)=O)ccc5[C@H]4CC[C@@]32C)OC1=O` [EM1404], the pKi on AKR1C3 [7] is 8.16.

`O=[N+]([O-])c1ccc(O)c2ncccc12` [Nitroxoline, reference compound]: the “fold lower IC50 compared to Ru-chlorido complex 9” value in the assay on COV362 cells [2] came to 4 fold. The same compound gave a pIC50 in the assay with COV362 cells [2] (Homo sapiens) of 5.18.

Compound `Cc1ccc(C(C)C)cc1.[Cl][Ru]([Cl])[PH]12CN3CN(CN(C3)C1)C2` [RAPTA-C, reference compound] gave a pIC50 in the assay on COV362 cells [2] of less than 3.52.

Consider `[O-][n+]1ccccc1S` [pyrithione], for which the “IC50 values (in words)” value in the assay on MCF-7 was “low µM”.
